Measured values taken from patent US20070232527A1, “Medicaments and methods combining a HCV protease inhibitor and an AKR competitor” (priority 2005, published 2007).
Converted amounts (≈) assume the structure as drawn. Where two headings read alike, the source gives them in different places.

Tests used:
AKR1C2 [1] = target: T1, AKR1C2 (Homo sapiens, UniProt P52895); conditions: tibolone as a substrate; cited from earlier work
T1 sequence (P52895 1-323): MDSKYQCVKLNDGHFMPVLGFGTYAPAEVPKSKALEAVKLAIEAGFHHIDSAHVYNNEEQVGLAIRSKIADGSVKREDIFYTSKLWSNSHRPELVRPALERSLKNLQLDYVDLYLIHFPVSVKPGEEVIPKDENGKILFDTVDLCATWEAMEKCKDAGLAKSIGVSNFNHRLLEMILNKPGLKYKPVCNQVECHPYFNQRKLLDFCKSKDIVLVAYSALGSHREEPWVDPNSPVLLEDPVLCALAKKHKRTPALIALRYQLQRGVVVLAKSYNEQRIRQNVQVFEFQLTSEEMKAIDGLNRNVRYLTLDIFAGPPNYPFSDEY

AKR1C3 [2] = target: T2, AKR1C3 (Homo sapiens, UniProt P42330); conditions: tibolone as a substrate; cited from earlier work
T2 sequence (P42330 1-323): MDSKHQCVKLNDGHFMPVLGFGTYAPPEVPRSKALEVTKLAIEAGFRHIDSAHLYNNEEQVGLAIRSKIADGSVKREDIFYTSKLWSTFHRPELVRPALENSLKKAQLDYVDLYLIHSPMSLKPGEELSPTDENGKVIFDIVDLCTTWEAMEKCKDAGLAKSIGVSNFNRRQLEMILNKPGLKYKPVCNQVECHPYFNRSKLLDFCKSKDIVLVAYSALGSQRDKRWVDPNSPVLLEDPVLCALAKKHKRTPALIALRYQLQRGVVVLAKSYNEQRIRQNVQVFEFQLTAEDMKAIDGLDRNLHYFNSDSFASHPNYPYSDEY

human liver cytosol [3] = assay: Inhibition of metabolism of 14C-Formula Ia to Formula Ia′ in human liver cytosol
Procedure: (§3) All incubations contained 3 mM magnesium chloride and NADPH-generating system in 0.5 mL of 50 mM potassium phosphate buffer, pH 7.4. Prior to the addition of drug, incubation mixtures were preincubated for 2 min at 37° C. […] The incubation mixtures were vortexed and centrifuged (˜10,000 g) at 4° C. for 10 min; supernatants were analyzed by HPLC coupled with radiometric detector. Heat activated S9 cofactor or mitochondria were used as control. For LC-MS analysis, supernatants were concentrated in SpeedVac for 3 hrs. Incubation volumes were 0.5 mL and the final concentration of the organic solvents in the incubation system was less than 1% (v/v).
(§4) The mobile phase consisted of 10 mM ammonium acetate adjusted to pH 7.0 with 1% ammonium hydroxide (A) and 100% methanol (B).

Human liver S9 = assay: Inhibition of metabolism of 14C-Formula Ia to Formula Ia′ in human liver S9; type: in vitro ADME; conditions: S9; concentration not given
[4] = test system: cytosolic enzymes that form the metabolite of Formula Ia; assay: in vitro; conditions: monkey
[5] = test system: cytosolic enzymes that convert Formula Ia to Formula Ia′; assay: in vitro; conditions: human
Procedure: as §3, §4

[6] = in vivo; cited from earlier work
AKR1C2 [7] = target: T1, AKR1C2; assay: Incubation with S9 fraction of recombinant human AKR1C2; type: in vitro ADME; design: made in house; conditions: 20 μM 14C-radiolabeled compound; S9 2.5 mg protein/mL; NADPH
Procedure: (§1) Recombinant human AKRs (AKR1C2, AKR1C3 and AKR1C4) were grown, sonicated and centrifuged at ˜10,000 g to obtain S9 fractions. Incubations of ^14C-radiolabeled compound of Formula Ia, ^14C-radiolabeled compound of Formula Ib and ^14C-radiolabeled compound of Formula Ic (all at 20 μM) with S9-fractions from three recombinant human AKRs (2.5 mg protein/mL) were conducted as described above. [drawing 161]
(§2) The samples were analyzed by HPLC-coupled with radiometric detector and confirmed by LC-MS.

[8] = In vivo inhibition study of Formula Ia with AKR competitor diflunisal, plasma PK; conditions: cynomolgus monkeys plasma; as a function of diflunisal dose 0, 62.5, 125, 250 mg
Procedure: An in vivo study was conducted in cynomolgus monkeys where 200 mg Formula Ia and 0 (control), 62.5, 125, or 250 mg diflunisal (Dolobid) was administered as illustrated below. All six monkeys were first dosed with Formula Ia with blood samples collected over a 12 hr period for plasma pharmacokinetics (PK) of Formula Ia prior to administration of diflunisal (dose-escalation). Four doses of diflunisal were subsequently administered every 12 hr with Formula Ia administered at each 4th diflunisal dose after which blood samples were collected for PK assessment of Formula Ia. The following chart summarizes the timing of Formula Ia and diflunisal administration.

human liver cytosol [9] = assay: Incubation of Formula Ia or Formula XXVII in human liver cytosol with AKR competitor (LC-MS, M+2 metabolite); type: in vitro ADME
Procedure: Prior to the addition of drug, the incubation mixture was preincubated for 2 min at 37° C. […] Human liver microsomes and cytosol without NADPH served as negative controls. Parallel incubations with the compound of Formula Ia were used as positive controls. […] All incubations were performed as described previously for human liver cytosols. […] Parallel incubations with the compound of Formula Ia were used as positive controls.

[10] = Clinical study of the effect of ibuprofen on pharmacokinetics of Formula Ia; type: in vivo; conditions: human, single 400 mg dose PO fasted, alone or with ibuprofen 600 mg TID; for AUC: plasma, po, 400 mg
Procedure: The study was conducted in an open-label, randomized, 3-period, 2-sequence crossover manner (FIG. 6). During Period 1, all 12 subjects were administered a single 400 mg dose of Formula Ia. During Periods 2 and 3, subjects received multiple doses of ibuprofen (600 mg TID) in a randomized sequence. The ibuprofen was administered beginning on Day 1 (3 days prior to Formula Ia administration) and continued through Day 6. A single dose of Formula Ia was administered on Day 4 (2 hours after administration of the AM dose of ibuprofen). Plasma samples for pharmacokinetic and metabolite analyses of Formula Ia was collected at predose (0 hour), 0.5, 1, 1.5, 2, 2.5, 3, 4, 5, 6, 7, 8, 9, 10, 12, 24, 36, 48, and 72 hour postdose for each period. (The 48 and 72 hour postdose samples for Period 1 was collected in an outpatient setting). In Periods 2 and 3, additional blood samples were collected immediately prior to dosing of the Formula Ia on Day 4 and two hours post ibuprofen administration on Day 5 for determination of ibuprofen concentration.
Treatment A: Formula Ia (4×100 mg capsules); single dose, PO following an overnight fast, administered on Day 1 or Period 1.
Treatment C: Ibuprofen 600 mg; PO, TID from Day 1 to Day 6 Formula Ia (4×100 mg capsules); single dose, PO following an overnight fast, administered on Day 4 (2 hours after the AM ibuprofen dose).
Subjects received a single dose of Formula Ia on Day 1 of Period 1. In Period 2 and Period 3, subjects were treated for 6 days with ibuprofen and received a single dose of Formula Ia on Day 4 of each period. There were at least 7 days between administration of Formula Ia in Period 1 and Period 2 and at least 14 days between administration of Formula Ia in Period 2 and 3.
The proportion of subjects with plasma concentrations above the in vitro IC50 and IC90 for the HCV replicon at each time point was determined. This plasma concentration data was used to estimate the following primary pharmacokinetic variables for the determination of bioavailability comparisons: • AUC—Area under the plasma concentration-time. • Cmax—Maximum observed plasma concentration. • Tmax—Time to maximum observed plasma concentration. • t1/2—Terminal phase half-life.

AKR1C3 [11] = target: T2, AKR1C3; assay: Incubation with S9 fraction of recombinant human AKR1C3; type: in vitro ADME; design: made in house; conditions: 20 μM 14C-radiolabeled compound; S9 2.5 mg protein/mL; NADPH
Procedure: as §1, §2

CC(CCC(=O)O)C1CCC2C3C(O)CC4CC(O)CCC4(C)C3CCC12C (stereo not drawn) [5beta-cholanic acid 3alpha, 7-alpha-diol]
IC50 (AKR1C2 [1]): 0.21 µM
IC50 (AKR1C3 [2]): 74.4 µM

O=[N+]([O-])c1ccc(OP(=O)(O)Oc2ccc([N+](=O)[O-])cc2)cc1 [BNPP, bis(4-nitrophenyl)-phosphate]
% Inhibition on Metabolite Formation of Compound Formula Ia (human liver cytosol [3]; Table 4, human liver cytosol, inhibitor 1000 μM, 2 hr incubation): 63.4%
inhibited formation of the compound of Formula Ia′ (human liver cytosol [3]; cytosol, concentration not given): 63.4%
inhibited formation of the compound of Formula Ia′ (Human liver S9): 57.4%

O=C(O)c1cc(-c2ccc(F)cc2F)ccc1O [Diflunisal]
Ki (human liver cytosol [3]; human cytosol, assuming the liver to plasma ratio equals 1): 0.5 µg/mL
IC50 [4]: 11 µM
IC50 at 120 min ([5]; pH 7.4): 1 µg/mL (≈ 4 µM)
inhibition at 2 h, 200 µM ([5]; pH 7.4, % of Inhibition on Metabolite Formation of Compound Formula Ia): 89.4%
Vdss [6]: 0.1 L/kg
protein binding [6]: about 99%

CC(C)(C)NC(=O)N[C@H](C(=O)N1C[C@H]2[C@@H]([C@H]1C(=O)NC(CC1CCC1)C(=O)C(N)=O)C2(C)C)C(C)(C)C (stereo partly drawn) [Formula Ia, (1R,5S)—N-[3-Amino-1-(Cyclobutylmethyl)-2,3-Dioxopropyl]-3-[2(S)-[[[(1,1-Dimethylethyl)Amino]Carbonyl]Amino]-3,3-Dimethyl-1-Oxobutyl]-6,6-Dimethyl-3-Azabicyclo[3.1.0]Hexan-2(S)-Carboxamide]
metabolism by recombinant AKR1C2 (AKR1C2 [7]): yielded compound of Formula Ia′
AUC ratio (Formula Ia′ to AUC for the compound) [8]: decline
1ST PARENT PEAK AREA (human liver cytosol [9]; HL Cytosol w/ NADPH + 50 uM Mefenamic acid): 6.19E+07
1ST PARENT PEAK AREA (human liver cytosol [9]; HL Cytosol w/ NADPH + 100 uM Flufenamic acid): 6.33E+07
1ST PARENT PEAK AREA (human liver cytosol [9]; HL Cytosol w/ NADPH + 100 uM Phenolphthalein): 6.23E+07
1ST PARENT PEAK AREA (human liver cytosol [9]; HL Cytosol w/ NADPH + 200 uM Diflunisal): 6.10E+07
1ST PARENT PEAK AREA (human liver cytosol [9]; HL Cytosol w/ NADPH Vehicle Control (no inhibitor)): 3.95E+07
1ST PARENT PEAK AREA (human liver cytosol [9]; HL Cytosol w/o NADPH, 20 μM, 60 min): 7.41E+07
AUC ([10]; read-out: AUC(all), Mean (% CV)): 2040 ng·h/mL
AUC ([10]; read-out: AUC(l), Mean (% CV)): 2070 ng·h/mL
AUC(0-t) ([10]; plasma Formula Ia, read-out: AUC(last), Mean (% CV)): 2000 ng·h/mL
Cmax ([10]; plasma Formula Ia, read-out: Cmax, Mean (% CV)): 571 ng/mL
MRT ([10]; plasma Formula Ia, read-out: MRT(l), Mean (% CV)): 6.57 h
Tmax ([10]; plasma Formula Ia, read-out: Tmax (median)): 1.75 h
half-life ([10]; plasma Formula Ia, read-out: t1/2, Mean (% CV) (converted)): 9.11 h
metabolism by recombinant AKR1C3 (AKR1C3 [11]): yielded compound of Formula Ia′
